Assay results reported in publication PMC9663578, “A fluorogenic probe for predicting treatment response in non-small cell lung cancer with EGFR-activating mutations” (Nature Communications, 2022).
“And” between values parts separate entries of the source, which are not always exact repeats. Identical values can stand only once.

How the values were obtained:
[1] = tested on: A431; experiment: Western blot of EGFR activation and downstream AKT and ERK1/2 phosphorylation; format: cell-based, human
Protocol: (§1) Western blotting analysis was performed to investigate the expression of EGFR and downstream signaling pathway in various cancer cells. Cells were added at a density of 5 × 10^5 per well in six-well plates and serum-starved in DMEM without FBS. […] After a PBS washing step, the cells were harvested and lysed in RIPA lysis buffer (Thermo Scientific, #89900) on ice for 20 min. After sonication, cell lysates were centrifuged at 12,000×g at 4 °C for 20 min. The supernatant was collected and protein concentration was determined by a BCA protein quantitation kit (Vazyme) and normalized to 2 mg/mL. Subsequently, 20 µL of protein sample was loaded to each lane and resolved on a 10% SDS-PAGE gel. After that, proteins on the gel were transferred onto polyvinylidene difluoride (PVDF) membranes (0.45 µm, Amersham Bioscience). PVDF membranes were blocked with 5% BSA blocking solution for 2 h at room temperature, followed by incubation with different primary antibodies (4 °C, overnight), including EGFR (#4267, 1:1000), phospho-EGFR (#3777, 1:1000), Akt (#4685, 1:1000), phospho-Akt (#4060, 1:1000), ERK1/2 (#4695, 1:1000), phospho-ERK1/2 (#4370, 1:2000) and GAPDH (#5174, 1:2000). Next, the membranes were washed by TBST buffer (Tris buffer with 0.1% Tween-20) for three times, followed by incubation with anti-rabbit IgG (HRP-linked antibody, #7074, 1:5000) for 1 h at room temperature. Finally, the blots were washed in PBST and immunoreactive proteins were detected using a luminal solution with ECL enhancer and H2O2 by ChemiDoc MP (BioRad) with Image Lab 6.0 software. The band density of each band was quantified and normalized to that of the corresponding GAPDH band to correct the possible differences in the content of protein loading. Each experiment was repeated 3 times for statistical analysis, and uncropped blots are in Source Data.

[2] = tested on: A549; experiment: as above; format: cell-based, human; settings: for p-kinase / kinase pAKT/AKT / p-kinase / kinase pEGFR/EGFR / p-kinase / kinase pERK/ERK: Fig. 2j A549, DMSO = 1, n=1-3
Protocol: as §1

[3] = biological target: T1, EGFR L858R (Homo sapiens, UniProt P00533, L858R); experiment: Kinase inhibition assay (fluorescent mobility-shift assay); format: biochemical; set-up: Kinase activity: unit not given here; settings: for Kinase activity: L858R, n=1-3
T1 construct: EGFR L858R (amino acids 668–1210, #PR7447A); purchased Thermo Fisher PR7447A

[4] = tested on: HCC827 cells; experiment: FACS assay in cultured cells; settings: for HX103 dose-dependent signal (Supplementary Fig. 18): 20 µM = 100
Protocol: Briefly, the cultured cells were seeded on the petri dish and counted using Count star BioMed automated cell counter. Around 10^6 live-cells were collected and were pelleted (2000×g, 3 min), followed by washing with PBS (2x). Cells were then resuspended in PBS buffer containing 0.1% BSA (1 × 10^6 cells/mL). […] The cell suspension was resuspended in PBS and analyzed with a FACSVerse^TM flow cytometer (BD Biosciences, LSRFortessa). About 10,000 events per tube were analyzed and the mean fluorescence intensity was detected and analyzed.
(§2) For the FACS assay with EGFR antibody, around 10^6 live-cells were collected and washed with PBS (2x). The cells were fixed by 400 µL 4% paraformaldehyde for 15 min at room temperature, followed by permeabilization with 0.1% Triton X-100 for 10 min and blocking with 5% BSA for 30 min. […] The cells were then washed with 0.5% BSA/PBS (3x) and resuspended in 400 µL of 0.1% BSA/PBS. […] The resuspended cell suspension was then analyzed on a FACSVerseTM flow cytometer (BD Biosciences, LSRFortessa). Nonspecific fluorescence binding was omitted by Rabbit mAb IgG isotype control (#3900, CST, 1:100) and the corresponding mean fluorescence was subtracted from the signal measured with each primary antibody. About 10,000 events per tube were analyzed and the mean fluorescence intensity was detected and analyzed.
(§3) Subsequently, the treated cells were incubated for 30 min at 37 °C, followed by washing with PBS buffer three times. […] Finally, the co-stained cells were washed with 0.5% BSA/PBS for three times and resuspended in 400 µL of 0.1% BSA/PBS. The obtained cell suspension was ready for analysis. Nonspecific fluorescence binding was omitted by Rabbit mAb IgG isotype control (#3900, CST, 1:100) as described above.
(§4) Nonspecific fluorescence binding was omitted by Rabbit mAb IgG isotype control (#3900, CST, 1:100). […] After incubation for another 30 min at room temperature, the co-stained cells were washed with 0.5% BSA/PBS for three times and resuspended in 400 µL of 0.1% BSA/PBS. The obtained cell suspension was ready for analysis. Nonspecific fluorescence binding was omitted by Rabbit mAb IgG isotype control (#3900, CST, 1:100) as described above.
(§5) The cells were seeded on the petri dish and cultured at the normal condition with 10% FBS, and that was changed to serum-free condition for 24 h when the cells proliferated at ~80% confluence. […] Nonspecific fluorescence binding was omitted by Rabbit mAb IgG isotype control (#3900, CST, 1:100) as described above.

[5] = tested on: Jurkat cells; experiment: FACS assay in cultured cells
Protocol: The FACS assay was performed according to the reported literatures[67],[68]. Briefly, the cultured cells were seeded on the petri dish and counted using Count star BioMed automated cell counter. Around 10^6 live-cells were collected and were pelleted (2000×g, 3 min), followed by washing with PBS (2x). Cells were then resuspended in PBS buffer containing 0.1% BSA (1 × 10^6 cells/mL). […] The cell suspension was resuspended in PBS and analyzed with a FACSVerse^TM flow cytometer (BD Biosciences, LSRFortessa). About 10,000 events per tube were analyzed and the mean fluorescence intensity was detected and analyzed.
as §2, §3, §4, §5

[6] = tested on: tumor tissues from NSCLC patients; experiment: HX103-based multicolor FACS, surgical tumor tissues; format: cell-based, human
Protocol: The obtained tissues were dissociated into single-cell suspension using a standard protocol of primary cell isolation. Briefly, the obtained fresh tissue was placed in a petri dish on ice and cut into small pieces of ~2 mm. […] Subsequently, the digested sample was filtered through 70-μm and 40-μm cell strainer (Falcon), respectively, followed by the wash with serum-free medium (DMEM). The tumor cell pellet was then obtained by centrifugation at 500×g for 5 min at 4 °C for the removal of the supernatant. Then, the cell pellet was resuspended in serum-free medium and 1 mL of red blood cell lysis buffer was added and incubated for 5 min to remove the erythrocyte. The cells were pelleted and resuspended in a serum-free medium and ready for FACS analysis[67],[68]. […]
Gibco), and digested for 30 min at 37 ℃ under gentle agitation. […] The cells were pelleted and resuspended in serum-free medium and ready for FACS analysis 2, 3. […]
The co-staining was performed for 30 min at 37 °C, then the cells were pelleted (2000 g, 3 min) and washed with PBS buffer and PBS (containing 1% BSA) (2 times). The cells were pelleted (2000 g, 3 min) and resuspended in PBS (containing 1% BSA) and ready for analysis with a FACSVerseTM flow cytometer (BD Biosciences, LSRFortessa) (the lasers used for this study: 405 nm, 488 nm and 647 nm). […]

[7] = Fig. 2i A431, concentration 10 (unit not given), DMSO = 1, n=1-3
[8] = concentration 0.3 (unit not given)
[9] = concentration 1 (unit not given)
[10] = concentration 3 (unit not given)
[11] = concentration 10 (unit not given)
[12] = HX103 5 µM, 30 min, replicates n=1-3

T1 sequence (P00533 668-1210 L858R): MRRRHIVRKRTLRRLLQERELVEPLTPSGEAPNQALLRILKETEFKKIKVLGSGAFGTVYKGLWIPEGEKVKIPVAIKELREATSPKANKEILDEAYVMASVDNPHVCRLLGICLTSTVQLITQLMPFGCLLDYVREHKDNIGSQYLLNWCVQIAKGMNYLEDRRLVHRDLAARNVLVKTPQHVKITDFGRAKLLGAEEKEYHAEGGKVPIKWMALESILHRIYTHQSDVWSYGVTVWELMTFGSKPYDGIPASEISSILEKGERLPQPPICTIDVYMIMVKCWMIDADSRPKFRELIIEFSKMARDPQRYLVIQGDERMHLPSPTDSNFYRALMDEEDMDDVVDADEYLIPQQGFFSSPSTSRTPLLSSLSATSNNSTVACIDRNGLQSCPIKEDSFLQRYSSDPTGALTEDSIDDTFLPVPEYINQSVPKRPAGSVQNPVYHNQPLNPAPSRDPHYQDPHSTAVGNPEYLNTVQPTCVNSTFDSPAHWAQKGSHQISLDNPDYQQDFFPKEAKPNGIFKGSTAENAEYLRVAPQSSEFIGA

Structure (SMILES): COc1cc2c(Nc3ccc(F)c(Cl)c3)ncnc2cc1OCCCNc1ccc(S(=O)(=O)N(C)C)c2nonc12 [HX103]
- p-kinase / kinase pERK/ERK ([1]; Fig. 2i A431, concentration 3 (unit not given), DMSO = 1, n=1-3): 0.169 and 0.13 and 0.175
- p-kinase / kinase pAKT/AKT [1, 7]: 0.241 and 0.197 and 0.219
- p-kinase / kinase pEGFR/EGFR [1, 7]: 0.067 and 0.066 and 0.064
- effect on wild-type EGFR phosphorylation ([1]; HX103 0 to 10 µM, EGF 25 ng/mL): significantly inhibited
- p-kinase / kinase pAKT/AKT [2, 8]: 0.202 and 0.332 and 0.222
- p-kinase / kinase pEGFR/EGFR [2, 8]: 0.116 and 0.065 and 0.105
- p-kinase / kinase pERK/ERK [2, 8]: 0.558 and 0.86 and 0.689
- p-kinase / kinase pAKT/AKT [2, 9]: 0.118 and 0.103 and 0.095
- p-kinase / kinase pERK/ERK [2, 9]: 0.486 and 0.455 and 0.485
- p-kinase / kinase pEGFR/EGFR [2, 10]: 0.07 and 0.045 and 0.073
- p-kinase / kinase pERK/ERK [2, 10]: 0.34 and 0.535 and 0.512
- p-kinase / kinase pAKT/AKT [2, 11]: 0.014 and 0.013 and 0.015
- p-kinase / kinase pERK/ERK [2, 11]: 0.39 and 0.424 and 0.512
- effect on wild-type EGFR phosphorylation ([2]; HX103 0 to 10 µM, EGF 25 ng/mL): significantly inhibited
- Kinase activity ([3]; Log [HX103 (M)] -5.5): 1.026 and 1.162 and 1.004
- Kinase activity ([3]; Log [HX103 (M)] -6): 0.499 and 0.9509 and 0.7157
- Kinase activity ([3]; Log [HX103 (M)] -7): 0.6308 and 0.9321 and 0.7802
- Kinase activity ([3]; Log [HX103 (M)] -7.5): 4.698 and 2.842 and 4.52
- Kinase activity ([3]; Log [HX103 (M)] -8): 12.69 and 17.65 and 16.97
- Kinase activity ([3]; Log [HX103 (M)] -8.5): 28.21 and 40.93 and 37.97
- Kinase activity ([3]; Log [HX103 (M)] -9): 37.52 and 69.85 and 65.69
- IC50 ([3]; n = 3): 1.5 nM
- EGFR(+) HX103 (+) (%) AVE ([4]; HCC827, AVE of n=3): 80.23%
- HX103 (+) (%) AVE ([4]; HCC827, AVE of n=3): 86.6667%
- HX103 dose-dependent signal (Supplementary Fig. 18) ([4]; HCC827, HX103 0.01 µM): 0.7326 and 0.7683 and 0.9746
- HX103 dose-dependent signal (Supplementary Fig. 18) ([4]; HCC827, HX103 0.04 µM): 2.846 and 2.806 and 2.831
- HX103 dose-dependent signal (Supplementary Fig. 18) ([4]; HCC827, HX103 0.37 µM): 22.4134 and 22.8581 and 22.7877
- HX103 dose-dependent signal (Supplementary Fig. 18) ([4]; HCC827, HX103 1.1 µM): 38.2787 and 42.4364 and 41.8565
- HX103 dose-dependent signal (Supplementary Fig. 18) ([4]; HCC827, HX103 3.3 µM): 54.3583 and 44.1499 and 45.6521
- HX103 dose-dependent signal (Supplementary Fig. 18) ([4]; HCC827, HX103 10 µM): 74.1678 and 84.8664 and 79.5169
- HX103 dose-dependent signal (Supplementary Fig. 18) ([4]; HCC827, HX103 15 µM): 88.3889 and 68.5257 and 78.4542
- HX103 dose-dependent signal (Supplementary Fig. 18) ([4]; HCC827, HX103 20 µM): 100
- HX103 signal (Supplementary Fig. 7) ([4]; HCC827, HX103 alone or with Gefitinib, replicates n=1-3): 106.679 and 93.3209 and 100
- EGFR(+) HX103 (+) (%) ([4]; HCC827, replicates n=1-3): 76.09% and 81.73% and 82.87%
- HX103(+) (%) ([4]; HCC827, replicates n=1-3): 99.17% and 83.21% and 77.62%
- normalized MFI of HX103 labeling [4, 12]: 92.4893% and 105.794% and 84.1202%
- EGFR(+) HX103 (+) (%) ([4]; HX103 5 µM, replicates n=1-3): 81.73% and 82.87% and 76.09%
- normalized MFI of HX103 labeling [5, 12]: 17.5966% and 26.6094% and 22.103%
- EGFR(+) HX103 (+) (%) ([5]; HX103 5 µM, replicates n=1-3): 0.1% and 0.22% and -0.02%
- EGFR(+) HX103 (+) (%) AVE ([5]; Jurkat, AVE of n=3): 0.1%
- HX103 (+) (%) AVE ([5]; Jurkat, AVE of n=3): 0.05667%
- EGFR(+) HX103 (+) (%) ([5]; Jurkat, replicates n=1-3): -0.02% and 0.1% and 0.22%
- HX103(+) (%) ([5]; Jurkat, replicates n=1-3): 0.07% and 0.01% and 0.09%
- mean % value of HX103(+), EGFR 19del tumors ([6]; n = 4): 40.6±8.2%
- mean % value of HX103(+), EGFR L858R tumors ([6]; n = 8): 65.3±10.9%
